Laboratory results published in ChEMBL document CHEMBL1158376, “Azadirachtin, a scientific gold mine” (Bioorg Med Chem, 2009).

Columns and labels:
Drosophila melanogaster [1] = experiment: Induction of nuclear damage in Drosophila melanogaster Kc167 cells after 6 hrs; format: functional
Drosophila melanogaster [2] = experiment: Antiproliferative activity against Drosophila melanogaster Kc167 cells after 48 hrs; format: functional
[3] = Toxicity in rat; format: organism-based; conditions: in vivo

With C/C=C(\C)C(=O)O[C@H]1C[C@@H](OC(C)=O)[C@@]2(C(=O)OC)CO[C@H]3[C@@H](O)[C@@](C)([C@]45O[C@@]4(C)[C@@H]4C[C@H]5O[C@@H]5OC=C[C@@]54O)[C@H]4[C@]1(CO[C@]4(O)C(=O)OC)[C@@H]32 [AZADIRACHTIN A] the inhibition (Drosophila melanogaster [1]) was “Dose-dependent effect”, the inhibition (Drosophila melanogaster [2]) was “Dose-dependent effect” and the LD50 [3] was over 3540 mg/kg.
